Results: a melting point compilation (Tetko et al.; mined from patent text by program, amines drawn as free bases though some values may be those of a salt)

Row | Compound | melting point
1 | Cc1ccc2c(c1)C=Cc1cc(C)c(C)cc1C2c1cn(Cc2ccc(C(=O)O)o2)c(=O)[nH]c1=S (stereo not given) | 292 °C
2 | CCc1cnc2n1N=C(c1ccc(N)cc1)c1cc3c(cc1C2)OCO3 | 258 to 260 °C
3 | NCCCCc1ccc(C2=NNC(=O)CC2)cc1 | 167 to 168 °C
4 | COc1ccc(-c2ccc(C#N)cn2)cc1-c1nc2cc(C#N)ccc2[nH]1 | 316 to 319 °C
5 | O=C(NCCCBr)c1cnccc1C(F)(F)F | 61 to 63 °C
6 | CCCCCCn1c(C)cc(C)c(C(=O)O)c1=O | 79 to 82.5 °C
7 | O=C(NO)c1ccc(-c2c3ccccc3nn2Cc2ccccc2)cc1 | 201 to 203 °C
8 | COc1cccc2c1CCCC2N (stereo not given) | 22 to 25 °C
9 | COc1ccc(-c2nn(CC=Cc3ccc(F)cc3F)c(=O)cc2-c2ccncc2)cc1 | 55.4 to 56.9 °C
10 | Cc1ccc(-c2nc3ncccc3o2)cc1 | 135 to 136 °C
11 | COC(=O)[C@H](Cc1ccccc1)NC(=O)[C@H](Cc1ccccc1)NC(=S)Cc1ccc(C)cc1 | 115 to 117 °C
12 | CS(=O)(=O)c1ncc2c(n1)N(c1ccccc1)C(=O)N(c1ccccc1Cl)C2 | 186 °C
13 | O=C(O)CCC(O)c1ccc(-c2ccc(Br)cc2)cc1 (stereo not given) | 127 °C
14 | CS(=O)(=O)C(=C1CN(C(c2ccc(Cl)cc2)c2ccc(Cl)cc2)C1)c1cccc(C(=O)NN2CCCCC2)c1 | 175 °C
15 | CCN(C)c1cc(OC)c(C(=O)NC2CCN(Cc3ccccc3)C2)cc1Cl (stereo not given) | 76 to 77 °C
16 | CCOC(=O)C1=C(COC)NC(COC)=C(C(=O)OCC)C1c1ccccc1C(F)(F)F | 133 to 134 °C
17 | CC(=O)N1CCC(NC(=O)Nc2cccc(F)c2)CC1 | 112 to 114 °C
18 | c1ccc2c(c1)Sc1ccccc1C1=C2CCNCC1 | 142 to 143 °C
19 | COc1cc2c(cc1OC)C(=C(C#N)SCC(CN1CCOCC1)OC(=O)c1ccccc1)NCC2 (stereo not given) | 144 °C
20 | O=C(O)c1ccc(-c2cc3ccccc3[nH]2)cc1 | 205 °C

Row | Compound | melting point
21 | O=C1CCC(N2Cc3cc(CNC(=O)Nc4cc(Cl)ccc4Cl)ccc3C2=O)C(=O)N1 (stereo not given) | 269 to 271 °C
22 | COc1cc(NC(C)=O)c(Cl)cc1C(=O)N[C@H]1CCN(CCCOc2ccc(F)cc2)C[C@H]1OC (relative stereo) | 176 °C
23 | CN(C)c1ccc(NC(=O)N(Cc2ccccc2)C[C@H]2CCC[C@H](CN(Cc3ccccc3)C(=O)Nc3ccc(N(C)C)cc3)C2)cc1 (relative stereo) | 129 to 133 °C
24 | Nc1nc(O)c2cc(C#Cc3ccc(C(=O)O)cc3)cnc2n1 | > 260 °C
25 | CCOC(=O)C(Cc1ccc(OCCN2CCC(C)(C)c3cc(C(=NOC)c4ccccc4)ccc32)cc1)OCC(F)(F)F (stereo not given) | 58 to 60 °C
26 | COC(=O)CCc1cc(C)cc(NC(C)=O)n1 | 82 °C
27 | Cc1cc(Nc2cc(C(C)(C)C)c(O)c(C(C)(C)C)c2)n2nccc2n1 | 251 to 253 °C
28 | CC1(C)CC2(CC(C)(C)c3ccc(Oc4cccc([N+](=O)[O-])c4)cc32)c2cc(Oc3cccc([N+](=O)[O-])c3)ccc21 | 174 to 175 °C
29 | CC(Nc1ccc(Cc2ccccc2)cc1)C(=O)O (stereo not given) | 119 °C
30 | C=CCc1c(OCC(O)CN2CCN(Cc3ccc(Cl)cc3)CC2)ccc2c(OCc3ccccc3)cc(=O)oc12 (stereo not given) | 155 to 157 °C
31 | CCC1=Nc2cc(CO)ccc2C(=O)C1 | 254 to 257 °C
32 | CSc1ncc(F)c(NCc2ccccc2F)n1 | 144 to 146 °C
33 | CC(=O)Nc1ccc(-c2ccnc3c(C(=O)c4ccccc4)cnn23)cc1 | 229 to 231 °C
34 | Cc1oc2cc(NC(=O)C(=O)O)ccc2c(=O)c1C | 234 to 240 °C
35 | CC(C)(C)OC(=O)Nc1cc(N2CCS(=O)(=O)CC2)c(C#Cc2ccccc2)cc1[N+](=O)[O-] | 217 to 221 °C
36 | O=C1NCC2=C1CN=C(c1ccccc1Cl)c1cc(Cl)ccc12 | 243 to 244 °C
37 | Cc1c(F)cc(C(=O)NC2CC2)cc1I | 112 to 114 °C
38 | Cc1noc(C)c1C(=O)Nc1ccc(-n2nc(C(F)(F)F)cc2C(F)(F)F)c(Cl)c1 | 64 to 65 °C
39 | Cc1noc(NS(=O)(=O)c2cc(Cl)sc2Cl)c1Br | 135 to 138 °C
40 | CC1CCc2cc([N+](=O)[O-])cnc2C1 (stereo not given) | 55 to 56 °C

Row | Compound | melting point
41 | O[C@@H](CNCCOc1ccc2oc(-c3ccon3)cc2c1)c1cccc(Cl)c1 | 112 to 120 °C
42 | CCC(c1ccccc1)c1c(O)c2c(oc1=O)CCCCCC2 (stereo not given) | 201 to 202 °C
43 | CN(C)/C=N/c1nc(=O)n(C(=O)NCc2ccccc2)cc1F | 147 to 150 °C
44 | CC1(C)CC(=O)c2c(C3CCC3)sc(-c3nccs3)c2C1 | 126 to 128 °C
45 | C#CCN(CC#C)c1cc(OC)c(OC)c(OC)c1 | 62 to 63 °C
46 | COC1(c2ccc(Sc3ccc4ccccc4c3)s2)CCOCC1 | 70 °C
47 | CC(C)NC(=O)n1nc(Oc2c(Cl)cc(C(F)(F)F)cc2Cl)cc1C(Cl)(Cl)Cl | 105 to 106 °C
48 | O=C(O)c1c2nc3cc(Cl)c(Br)cc3c-2[nH]c2ccccc12 | > 243 °C
49 | O=Cc1cc(O)c2c(c1)C(=O)c1cccc(O)c1C2=O | 198 to 200 °C
50 | CN1CCN(c2c3c(nc4cc(Cl)ccc24)CCN(C)C3)CC1 | 114 to 115 °C
51 | CC(C)COc1ccccc1C(=N)N | 49 to 51 °C
52 | CCCCC1=NC2(CCCC2)C(=O)N1Cc1ccc(-c2ccccc2S(=O)(=O)Nc2onc(C)c2C)c(CN2CCC(C)(C)C2=O)c1 | 104 to 110 °C
53 | Cc1cccc(NC(=O)NCC(=O)N(CC(=O)N2CCCC2)c2ccccc2)c1 | 206 °C
54 | Nc1cc(Cl)cc2c(Cl)ccnc12 | 132 to 134 °C
55 | N#Cc1nn(-c2c(Cl)cc(C(F)(F)F)cc2Cl)c(Sc2ccccc2)c1SC(F)(F)F | 84 to 86 °C
56 | C[C@@H]1CCCN1CCCOc1ccc(-c2ccc(S(=O)(=O)Cc3ccccc3)nn2)cc1 | 136 °C
57 | Cc1nn(-c2ccc(F)cc2)cc1C(=O)Nc1ccc(CC(C)C)c(C#N)c1 | 178 to 179 °C
58 | Cc1ccc(S(=O)(=O)OCC(C)C2CCC3C4CC=C5CC(O)CC(O)C5(C)C4CCC23C)cc1 (stereo not given) | 91 to 99 °C
59 | NC(=O)c1nnc2n1-c1ccc(Cl)cc1C(c1ccccc1Cl)=NC2 | 226 to 228 °C

Now from value to compound:

Row | melting point | Compound
60 | 210 to 212 °C | COc1ccc(C=C2SC(=O)NC2=O)cc1C(=O)NCc1ccc(C(F)(F)F)cc1
61 | 140 to 143 °C | N#CCC(=O)Nc1ccc(-n2nc(C(F)(F)F)cc2C(F)(F)F)cc1
62 | 229 to 231 °C | O=C1c2cc3nnn(Cc4cnccn4)c(=O)c3cc2OC2CCCN12 (stereo not given)
63 | 193 to 195 °C | O=c1ccc(-c2c(-c3ccccc3)nn3ccccc23)nn1[C@H]1CC[C@@H](C(=O)O)CC1
64 | 82 to 84 °C | COc1ccccc1OCC1SCCN1C(=O)CBr (stereo not given)
65 | 310 to 335 °C | CN1CCc2c(ccc3[nH]c(=O)c(=O)[nH]c23)C1
66 | 139 to 141 °C | CN1c2cscc2C(=O)N(CCN2CCCC2)c2ccccc21
67 | 130 °C | Nc1ccc(N2CCN(Cc3ncc(-c4ccccc4)o3)CC2)cc1
68 | 110 to 113 °C | Nc1cnc(Cl)c(Cl)c1
69 | 256 to 258 °C | O=C1Nc2ccccc2Sc2c1cccc2C(F)(F)F
70 | 187 to 189 °C | COc1ccc(-c2nc(-c3ccc(F)cc3)c(-c3ccc(S(C)(=O)=O)cc3)s2)cc1
71 | 172 to 173 °C | C=Cc1ccc(C(=O)Oc2ccc(NS(C)(=O)=O)cc2)cc1
72 | 131 to 135 °C | CCn1cnc2c(Nc3ccc(NC(=O)OC)cc3)nc(N[C@H]3CC[C@H](O)CC3)nc21
73 | 47 to 49 °C | CCOC(=O)Cc1sc(Sc2ccc(OC)nn2)nc1C
74 | 143 to 145 °C | CCC(Oc1ccc2oc3cc(Cl)ccc3c2c1)C(=O)O (stereo not given)
75 | 192 °C | CC1=C(C(=O)OC(C)(C)C)C(c2ccc(Cl)cc2)C(C(=O)OC(C)(C)C)=C(C)N1
76 | 61 to 64 °C | COc1ccc(-c2ccc(C#N)o2)cc1C(F)(F)F
77 | 278 to 279 °C | Oc1ccc(-c2ncc3ncc(-c4ccccc4O)cc3n2)cc1
78 | 153 to 154 °C | N#CN1c2ccccc2CC(=O)c2ccccc21
79 | 226 °C | O=C(N1CCC(n2c(=O)[nH]c3ncccc32)CC1)n1ccnc1
80 | 101 to 103 °C | CC(CCl)OC(=O)Nc1ccc([N+](=O)[O-])cc1Cl (stereo not given)

Row | melting point | Compound
81 | 145 to 146 °C | COc1ccc(SC2CC(=O)N2)cc1OC (stereo not given)
82 | 117 to 118 °C | CCOC(=O)C(=O)CC(=O)/C=C/c1ccc(Cl)cc1
83 | 133 to 141 °C | CCCCC(CC)COC(=O)c1cc(CN(CC(=O)O)CC(=O)O)c(O)c(CN(CC(=O)O)CC(=O)O)c1 (stereo not given)
84 | > 300 °C | Nc1scc2c(C(=O)O)nn(-c3ccc(Br)cc3)c(=O)c12
85 | 138 °C | CCN1CCNS(=O)(=O)c2cc(Oc3ccccc3)ccc21
86 | 231 °C | O=C(N[C@H]1CC[C@H](CCN2CCN(c3nccc4c3OCC4)CC2)CC1)c1ccc(N2CCOCC2)nc1
87 | 83 to 85 °C | Brc1ccc(OCc2ccc3ccccc3c2)nc1
88 | 106 to 107 °C | COc1ccc(-n2nc(C(C)C)cc2-c2ccc(OCCNC(N)=O)cc2)cn1
89 | 78 to 80 °C | O=[N+]([O-])c1ccc(F)c(-c2cncnc2)c1F
90 | 111 to 112 °C | CS(=O)(=O)OCCCc1ccc(OCc2coc(/C=C/c3ccccc3)n2)cc1
91 | 236 °C | CS(=O)(=O)c1ccc(-c2oc(C(=O)O)cc(=O)c2-c2ccc(Cl)cc2)cc1
92 | 163 to 164 °C | C=CCNc1ncnc2c1ncn2Cc1c(F)cccc1Cl
93 | 102 to 103 °C | CCCCC1NC(C(=O)OC)Cc2c1[nH]c1ccccc21 (stereo not given)
94 | 94 to 97 °C | O=C1NCCN1CCN1CCN([C@@H]2C[C@@H](c3ccc(F)cc3)c3ccccc32)CC1
95 | 145 to 148 °C | Cc1ccc2c(c1)/C(=N\NC(N)=O)C(=O)N2CCCN(C(C)C)C(C)C
96 | 186 to 188 °C | Brc1cnc2c(Br)cncc2c1
97 | 188 to 190 °C | CC(=O)Nc1ncc(-c2cccc3ccccc23)o1
98 | 106 to 108 °C | CC(C)(CCc1ccc(Cl)c(Cl)c1)CC(=O)O
99 | 148 °C | CCc1cc2[nH]c(=O)oc2cc1NCC1CCCOC1 (stereo not given)
100 | 169 to 170 °C | O=[N+]([O-])c1ccc(Cn2c(S(=O)(=O)C(F)(F)C(F)F)nc(-c3ccc(F)cc3)c2-c2ccc(F)cc2)cc1
